The values that follow are results of earlier work, collected in US20100216719A1, “Soluble Fiber Combinations for Weight Control and Improving Parameters of Cardiovascular Health” (MANNATECH, INCORPORATED, priority 2005, published 2010).

The conditions of series [1]: subjects supplemented with 3.8 grams per day for 28 days.
The conditions of series [2]: test animals.

For the substance Konjac glucomannan, in series [1], the “reduction in ApoB” value is given as 12.9%, the “reduction in LDL cholesterol” value is given as 20.7%, the “reduction in fasting glucose levels” value is 23.2% and the “reduction in plasma cholesterol” value was 11.1%. The “reduction in total cholesterol/HDL cholesterol ratio” value in series [1] is 15.6%.

Turning to guar gum, the effect on cholesterol entry in series [2] is “decreased only cholesterol”.

In the case of xanthan gum, in series [2], the effect on cholesterol result is listed as “significantly reduced” and the effect on triglycerides entry is reported as “significantly reduced”.
